Reference: ChEMBL document CHEMBL1201862, “PubChem BioAssay data set” (2004)
Each block holds one compound with its values, some of them ahead of it. Active and inactive are the calls of the source.

How the values were obtained:
Format in all cases: functional
[1] = molecular target: T1, Calpain-2 catalytic subunit (Sus scrofa, UniProt P43367); assay: m-calpain protease blockers, concentration series – biochemical, fluorogenic peptide substrate, dose response (AID 1420)
T1 sequence (P43367 whole entry): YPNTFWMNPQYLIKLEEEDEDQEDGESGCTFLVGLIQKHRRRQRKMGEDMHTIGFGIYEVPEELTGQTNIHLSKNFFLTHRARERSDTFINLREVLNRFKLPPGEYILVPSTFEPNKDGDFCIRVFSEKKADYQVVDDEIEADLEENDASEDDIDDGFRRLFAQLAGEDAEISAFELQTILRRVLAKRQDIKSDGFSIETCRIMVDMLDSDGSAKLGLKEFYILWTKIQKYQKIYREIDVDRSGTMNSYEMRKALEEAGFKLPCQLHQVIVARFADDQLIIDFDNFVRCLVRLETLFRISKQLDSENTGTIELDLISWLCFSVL

[2] = molecular target: Tyrosine-protein kinase receptor TYRO3 (Homo sapiens, UniProt Q06418);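 further: TYRO3 value obtained as one member of a kinome-wide profiling panel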
Tyrosine-protein kinase receptor TYRO3, sequence (Q06418 whole entry): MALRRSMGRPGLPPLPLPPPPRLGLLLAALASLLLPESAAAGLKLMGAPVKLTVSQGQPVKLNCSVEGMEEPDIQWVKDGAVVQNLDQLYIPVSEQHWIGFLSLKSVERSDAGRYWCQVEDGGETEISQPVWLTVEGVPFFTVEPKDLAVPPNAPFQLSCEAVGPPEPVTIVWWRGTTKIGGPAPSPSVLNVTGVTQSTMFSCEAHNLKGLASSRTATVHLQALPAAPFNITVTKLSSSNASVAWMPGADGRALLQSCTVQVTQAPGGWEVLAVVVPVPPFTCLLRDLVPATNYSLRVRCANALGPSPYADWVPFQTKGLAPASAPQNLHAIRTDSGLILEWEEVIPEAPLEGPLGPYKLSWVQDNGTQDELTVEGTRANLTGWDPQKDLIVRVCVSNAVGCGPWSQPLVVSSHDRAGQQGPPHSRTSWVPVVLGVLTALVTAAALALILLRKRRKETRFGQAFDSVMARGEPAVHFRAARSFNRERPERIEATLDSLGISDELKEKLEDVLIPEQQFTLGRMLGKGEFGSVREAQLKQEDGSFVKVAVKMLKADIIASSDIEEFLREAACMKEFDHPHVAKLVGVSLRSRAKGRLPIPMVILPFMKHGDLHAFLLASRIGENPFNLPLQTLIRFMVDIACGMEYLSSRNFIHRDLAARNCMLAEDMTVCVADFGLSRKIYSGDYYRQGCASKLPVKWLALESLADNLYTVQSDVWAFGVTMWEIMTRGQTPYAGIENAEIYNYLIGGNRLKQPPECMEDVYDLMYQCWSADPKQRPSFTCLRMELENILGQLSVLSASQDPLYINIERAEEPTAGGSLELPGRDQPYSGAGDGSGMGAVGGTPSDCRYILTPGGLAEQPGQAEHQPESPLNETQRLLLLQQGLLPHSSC

[3] = molecular target: Serine/threonine-protein kinase D3 (Homo sapiens, UniProt O94806);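 further: determined within a kinase panel screen, with PRKCN as the panel member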
[4] = molecular target: Activin receptor type-1 (Homo sapiens, UniProt Q04771); assay: Navigating the Kinome. Panel member name: ACVR1
[5] = molecular target: Mitogen-activated protein kinase 9 (Homo sapiens, UniProt P45984);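 further: value from a kinome panel profiling assay, MAPK9 panel entry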
Mitogen-activated protein kinase 9, sequence (P45984 whole entry, the tested form may be a part): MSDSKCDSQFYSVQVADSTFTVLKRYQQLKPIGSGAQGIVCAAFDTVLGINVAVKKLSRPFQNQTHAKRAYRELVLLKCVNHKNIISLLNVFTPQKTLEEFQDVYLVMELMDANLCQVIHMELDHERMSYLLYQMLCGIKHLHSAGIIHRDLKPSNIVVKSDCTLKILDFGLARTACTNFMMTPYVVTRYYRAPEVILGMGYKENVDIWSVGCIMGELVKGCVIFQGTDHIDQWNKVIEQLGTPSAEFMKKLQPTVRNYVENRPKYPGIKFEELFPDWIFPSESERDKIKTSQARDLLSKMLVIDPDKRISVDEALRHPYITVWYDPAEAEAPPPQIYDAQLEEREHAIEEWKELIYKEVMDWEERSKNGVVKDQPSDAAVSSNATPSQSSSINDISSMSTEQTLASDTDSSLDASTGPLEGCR

[6] = molecular target: LIM domain kinase 1 (Homo sapiens, UniProt P53667); assay: Navigating the Kinome. Panel member name: LIMK1
[7] = molecular target: Glycogen synthase kinase-3 alpha (Homo sapiens, UniProt P49840);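 further: GSK3A result taken from a broad kinome-wide kinase panel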
[8] = molecular target: Mitogen-activated protein kinase kinase kinase kinase 2 (Homo sapiens, UniProt Q12851);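 further: measured as one member of a kinome-wide kinase panel, with MAP4K2 as the panel entry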
Mitogen-activated protein kinase kinase kinase kinase 2, sequence (Q12851 whole entry): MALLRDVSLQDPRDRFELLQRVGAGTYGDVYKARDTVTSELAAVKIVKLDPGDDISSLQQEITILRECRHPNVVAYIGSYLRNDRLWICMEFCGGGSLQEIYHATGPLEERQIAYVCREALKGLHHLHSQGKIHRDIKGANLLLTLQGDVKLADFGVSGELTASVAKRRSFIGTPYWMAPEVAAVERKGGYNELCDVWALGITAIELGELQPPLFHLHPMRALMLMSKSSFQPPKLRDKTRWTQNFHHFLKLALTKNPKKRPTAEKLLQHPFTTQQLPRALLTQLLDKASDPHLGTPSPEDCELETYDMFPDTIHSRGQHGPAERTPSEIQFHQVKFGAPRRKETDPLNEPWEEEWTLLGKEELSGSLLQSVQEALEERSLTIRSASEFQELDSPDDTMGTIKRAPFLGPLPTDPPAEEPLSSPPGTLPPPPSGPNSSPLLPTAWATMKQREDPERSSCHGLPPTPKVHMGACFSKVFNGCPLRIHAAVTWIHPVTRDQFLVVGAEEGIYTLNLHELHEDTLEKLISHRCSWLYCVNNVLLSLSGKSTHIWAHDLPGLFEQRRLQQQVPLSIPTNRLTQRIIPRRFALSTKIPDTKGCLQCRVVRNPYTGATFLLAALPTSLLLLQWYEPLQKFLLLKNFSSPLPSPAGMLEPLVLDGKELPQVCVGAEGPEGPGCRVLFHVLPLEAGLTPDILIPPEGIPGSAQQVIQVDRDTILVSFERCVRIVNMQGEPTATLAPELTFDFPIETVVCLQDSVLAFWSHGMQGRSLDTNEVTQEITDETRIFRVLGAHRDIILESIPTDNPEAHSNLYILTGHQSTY

[9] = molecular target: Receptor-type tyrosine-protein kinase FLT3 (Homo sapiens, UniProt P36888);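 further: FLT3 was tested as one member of a kinome-wide kinase panel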
Receptor-type tyrosine-protein kinase FLT3, sequence (P36888 whole entry): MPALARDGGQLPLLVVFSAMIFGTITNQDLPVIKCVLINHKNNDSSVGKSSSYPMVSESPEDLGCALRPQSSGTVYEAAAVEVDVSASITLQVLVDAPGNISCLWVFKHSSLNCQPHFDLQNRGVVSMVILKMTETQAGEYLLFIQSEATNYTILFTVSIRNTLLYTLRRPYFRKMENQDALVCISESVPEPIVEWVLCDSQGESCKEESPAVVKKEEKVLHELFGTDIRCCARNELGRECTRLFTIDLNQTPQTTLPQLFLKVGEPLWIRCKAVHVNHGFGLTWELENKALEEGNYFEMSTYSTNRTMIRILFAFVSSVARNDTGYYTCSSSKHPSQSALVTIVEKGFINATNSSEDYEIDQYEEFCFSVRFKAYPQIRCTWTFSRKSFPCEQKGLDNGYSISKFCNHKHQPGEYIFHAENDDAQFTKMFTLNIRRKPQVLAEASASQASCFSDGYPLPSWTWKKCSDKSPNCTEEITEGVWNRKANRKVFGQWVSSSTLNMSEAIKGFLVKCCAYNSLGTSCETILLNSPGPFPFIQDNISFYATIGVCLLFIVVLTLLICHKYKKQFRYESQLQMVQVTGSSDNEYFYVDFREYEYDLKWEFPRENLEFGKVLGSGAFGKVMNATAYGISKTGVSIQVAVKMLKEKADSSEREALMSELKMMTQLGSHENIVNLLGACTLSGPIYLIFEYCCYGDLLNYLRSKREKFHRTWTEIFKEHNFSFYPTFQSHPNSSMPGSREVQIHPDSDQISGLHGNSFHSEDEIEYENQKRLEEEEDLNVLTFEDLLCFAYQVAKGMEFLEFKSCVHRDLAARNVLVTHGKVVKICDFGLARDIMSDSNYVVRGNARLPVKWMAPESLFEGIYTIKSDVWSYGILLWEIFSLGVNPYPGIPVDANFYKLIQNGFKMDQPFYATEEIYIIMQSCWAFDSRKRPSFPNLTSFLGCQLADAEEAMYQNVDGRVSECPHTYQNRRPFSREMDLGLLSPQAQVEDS

[10] = molecular target: T2, Serine/threonine-protein kinase Chk1 (Homo sapiens, UniProt O14757);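 further: measured as one member of a kinome-wide kinase profiling panel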
T2 sequence (O14757 whole entry): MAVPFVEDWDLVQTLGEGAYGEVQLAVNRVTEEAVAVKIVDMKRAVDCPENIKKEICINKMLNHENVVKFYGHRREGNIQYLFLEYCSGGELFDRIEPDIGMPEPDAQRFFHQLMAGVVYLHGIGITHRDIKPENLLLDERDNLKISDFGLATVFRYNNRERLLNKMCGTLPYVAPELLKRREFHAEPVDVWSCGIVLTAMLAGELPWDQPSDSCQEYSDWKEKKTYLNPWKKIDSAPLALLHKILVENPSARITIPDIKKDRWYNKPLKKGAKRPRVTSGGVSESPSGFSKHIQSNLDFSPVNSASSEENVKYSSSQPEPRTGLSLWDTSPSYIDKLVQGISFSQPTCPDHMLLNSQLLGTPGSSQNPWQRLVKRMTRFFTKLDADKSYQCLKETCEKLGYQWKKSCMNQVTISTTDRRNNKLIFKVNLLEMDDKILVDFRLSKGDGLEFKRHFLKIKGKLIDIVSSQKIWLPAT

[11] = molecular target: Tyrosine-protein kinase ABL1 (Homo sapiens, UniProt P00519)
[12] = molecular target: G protein-coupled receptor kinase 5 (Homo sapiens, UniProt P34947); assay: Navigating the Kinome. Panel member name: GPRK5
G protein-coupled receptor kinase 5, sequence (P34947 whole entry): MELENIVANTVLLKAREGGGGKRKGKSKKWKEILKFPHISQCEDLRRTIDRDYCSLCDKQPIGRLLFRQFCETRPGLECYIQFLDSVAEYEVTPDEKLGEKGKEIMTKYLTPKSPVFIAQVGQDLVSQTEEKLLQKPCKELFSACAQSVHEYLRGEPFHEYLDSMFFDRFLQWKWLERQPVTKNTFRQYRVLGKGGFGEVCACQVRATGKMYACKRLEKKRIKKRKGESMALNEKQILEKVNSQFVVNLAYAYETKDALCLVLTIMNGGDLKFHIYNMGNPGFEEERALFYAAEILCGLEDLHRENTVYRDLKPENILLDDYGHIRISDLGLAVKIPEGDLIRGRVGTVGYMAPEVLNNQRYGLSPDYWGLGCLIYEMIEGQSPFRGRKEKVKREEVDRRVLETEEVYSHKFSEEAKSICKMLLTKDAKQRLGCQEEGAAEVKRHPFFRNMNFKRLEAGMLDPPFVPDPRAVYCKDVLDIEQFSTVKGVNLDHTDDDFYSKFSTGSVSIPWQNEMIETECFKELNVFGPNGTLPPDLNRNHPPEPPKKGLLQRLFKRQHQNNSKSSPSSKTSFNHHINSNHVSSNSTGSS

[13] = molecular target: Cyclin-dependent kinase 5 (Homo sapiens, UniProt Q00535);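 further: CDK5 measured as one member of a kinase profiling panel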
Cyclin-dependent kinase 5, sequence (Q00535 whole entry): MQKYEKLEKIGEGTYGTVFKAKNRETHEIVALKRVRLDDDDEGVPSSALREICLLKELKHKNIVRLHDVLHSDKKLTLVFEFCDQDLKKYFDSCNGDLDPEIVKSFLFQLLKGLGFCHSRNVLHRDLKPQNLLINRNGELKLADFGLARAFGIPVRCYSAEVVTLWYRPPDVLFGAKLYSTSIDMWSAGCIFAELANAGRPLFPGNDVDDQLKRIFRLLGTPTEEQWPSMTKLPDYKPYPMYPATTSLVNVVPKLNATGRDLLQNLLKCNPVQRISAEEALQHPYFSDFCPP

[14] = molecular target: Leucine-rich repeat serine/threonine-protein kinase 2 (Homo sapiens, UniProt Q5S007);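 further: value from a broad kinome-wide panel profiling study in which LRRK2 was one of the kinases tested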
[15] = molecular target: Aurora kinase B (Homo sapiens, UniProt Q96GD4)
Aurora kinase B, sequence (Q96GD4 whole entry): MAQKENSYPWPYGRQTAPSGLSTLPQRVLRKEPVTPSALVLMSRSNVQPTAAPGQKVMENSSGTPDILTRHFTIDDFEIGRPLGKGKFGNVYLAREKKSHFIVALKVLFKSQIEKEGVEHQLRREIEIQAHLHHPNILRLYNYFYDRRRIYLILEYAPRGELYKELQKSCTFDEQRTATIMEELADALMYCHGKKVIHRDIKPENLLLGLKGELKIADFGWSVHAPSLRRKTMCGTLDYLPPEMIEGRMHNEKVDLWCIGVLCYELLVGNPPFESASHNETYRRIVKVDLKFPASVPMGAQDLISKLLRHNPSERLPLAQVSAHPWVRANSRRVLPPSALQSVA

[16] = molecular target: Rho-associated protein kinase 1 (Homo sapiens, UniProt Q13464);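 further: measured within a broad kinome-wide panel profiling many kinases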
[17] = molecular target: Serine/threonine-protein kinase Nek2 (Homo sapiens, UniProt P51955)
[18] = molecular target: Glycogen synthase kinase-3 beta (Homo sapiens, UniProt P49841);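 further: value comes from a broad kinome profiling panel, with GSK3B as the panel member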
[19] = molecular target: Cyclin-dependent kinase 9 (Homo sapiens, UniProt P50750);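 further: value from the CDK9 entry of a kinome-spanning kinase panel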
[20] = molecular target: Dual specificity protein kinase CLK4 (Homo sapiens, UniProt Q9HAZ1)
Dual specificity protein kinase CLK4, sequence (Q9HAZ1 whole entry): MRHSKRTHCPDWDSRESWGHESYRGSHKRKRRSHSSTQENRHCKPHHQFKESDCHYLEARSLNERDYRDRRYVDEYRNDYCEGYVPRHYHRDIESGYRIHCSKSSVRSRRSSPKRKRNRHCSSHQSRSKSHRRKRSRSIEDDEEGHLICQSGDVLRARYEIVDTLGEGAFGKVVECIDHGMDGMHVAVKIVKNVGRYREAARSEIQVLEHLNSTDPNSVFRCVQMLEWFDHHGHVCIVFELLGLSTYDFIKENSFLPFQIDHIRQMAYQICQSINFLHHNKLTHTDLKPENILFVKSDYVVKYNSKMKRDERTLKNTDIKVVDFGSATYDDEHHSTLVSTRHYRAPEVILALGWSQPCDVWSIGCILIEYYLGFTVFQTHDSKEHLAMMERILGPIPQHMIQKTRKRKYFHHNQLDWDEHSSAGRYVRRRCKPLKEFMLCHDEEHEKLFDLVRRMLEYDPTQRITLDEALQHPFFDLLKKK

[21] = molecular target: Macrophage-stimulating protein receptor (Homo sapiens, UniProt Q04912); assay: Navigating the Kinome. Panel member name: MST1R
[22] = molecular target: Macrophage colony-stimulating factor 1 receptor (Homo sapiens, UniProt P07333);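 further: value comes from the Navigating the Kinome screening panel, CSF1R member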
[23] = molecular target: Dual specificity tyrosine-phosphorylation-regulated kinase 1A (Homo sapiens, UniProt Q13627);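 further: measured against DYRK1A as one member of a broad kinome profiling panel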
[24] = molecular target: Melanocortin receptor 4 (Homo sapiens, UniProt P32245); assay: inhibitors of MC4R cAMP signaling – cell-based, TR-FRET, biased antagonists, dose response (AID 602298);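 further: antagonist potency against agonist-stimulated cAMP production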
[25] = molecular target: Matrix metalloproteinase-14 (Homo sapiens, UniProt P50281); assay: Dose Response confirmation of uHTS hits for a small molecule inhibitors of MT1-MMP activation in a fluorescence assay set 1.

Structure (SMILES): Cc1ccc(NC(=O)COc2cccc(/C=C3\SC(=S)N(CCC(=O)O)C3=O)c2)cc1Cl
- IC50 [1]: > 50000 nM (not active)

- Ki [2]: > 3160 nM (inactive)
- Ki [3]: > 3980 nM (inactive)
- Ki [4]: 2510 nM (active)
- Ki [5]: > 3980 nM (inactive)
- Ki [6]: > 3160 nM (inactive)
- Ki [7]: 1000 nM (active)
- Ki [8]: > 2510 nM (inactive)
- Ki [9]: > 3160 nM (inactive)
- Ki [10]: 79.4 nM (active)
- Ki [11]: > 2510 nM (inactive)
- Ki [12]: 1000 nM (active)
- Ki [13]: > 3160 nM (inactive)
- Ki [14]: > 2510 nM (inactive)
- Ki [15]: 398 nM (active)
- Ki [16]: 1.26 nM (active)
- Ki [17]: > 3160 nM (inactive)
- Ki [18]: 1260 nM (active)
- Ki [19]: > 1580 nM (inactive)
- Ki [20]: 316 nM (active)
- Ki [21]: > 3980 nM (inactive)
- Ki [22]: > 2510 nM (inactive)
- Ki [23]: > 2000 nM (inactive)
Structure (SMILES): COc1cccc(C(C)NC(=O)c2ccc(-c3ccncc3)s2)c1 (stereo not given)

Structure (SMILES): O=Nc1c(-c2c(O)[nH]c3cc(Br)ccc23)[nH]c2ccccc12
- IC50 [24]: 6370 nM (active)
- IC50 [25]: 1780 nM (active)
